Our source for the EC50 and inhibition values is patent US10195185B2, “3-(1H-imidazo[4,5-C]pyridin-2-yl)-1H-pyrazolo[4,3-B]pyridines and therapeutic uses thereof” (Samumed, LLC, priority 2015, dated 2019).

What all share (assay type): cell-based
Experiment [1] relates to IL-6 in human monocyte cell line (THP-1 cells). Put plainly: IL-6 inhibition in LPS-stimulated THP-1 cells (HTRF). Particulars: IL-6 in LPS-stimulated THP-1 cells; for EC50: HTRF; for inhibition at 10 µM: read-out: percent inhibition in brackets beside EC50 >10 μM. Summed up:
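Readout is the 665/620 nm HTRF ratio for secreted IL-6, normalized to DMSO wells, with EC50 from a variable-slope four-parameter fit, or % inhibition at 10 μM when above 10 μM. Cells (1% FBS, 24 h beforehand) got compound for 2 h, then LPS 500 ng/mL for 22 h at 37° C; top dose 10 μM, 0.1% DMSO.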
For orientation: In TR-FRET formats the signal depends on donor and acceptor labels being close together.

For experiment [2], the system named is Primary human fibroblasts derived from IPF patients (LL29 cells) treated with TGF-β1. Kind of experiment: Inhibition of the fibrotic process: αSMA staining in TGF-β1 treated fibroblasts. To be noted: Fibroblast, 96 h, LL29 fibroblasts treated with TGF-β1, 4 days; for inhibition at 10 µM: read-out: percent inhibition in brackets beside EC50 >10 μM. Summed up:
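EC50 values come from non-linear fits of the αSMA-positive percentage among SYTOX-excluded live cells, normalized to TGF-β1 plus DMSO controls, or appear as % inhibition at 10 μM when above 10 μM. Fibrosis was induced in IPF-derived LL29 fibroblasts by 20 ng/mL TGF-β1 over 4 days, with 1:2 compound dilutions from 10 μM.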

Experiment [3] deals with SW480 colon cancer cells. Kind of experiment: Cell viability assay (CellTiter-Blue), four days. To be noted: Homo sapiens, 96 h; for EC50: CellTiter-Blue cell viability; for inhibition at 10 µM: read-out: percent inhibition at 10 μM (given for EC50 of >10 μM). Summed up: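 Resazurin reduction (Ex 560/Em 590 nm, ~3 h reagent incubation) served as the viability read-out after SW480 cells were treated for four days at 37 °C. Doses ran from 10 μM down to 0.0045 μM in eight 1:3 steps. Curves fitted non-linearly for EC50, else % inhibition at 10 μM reported.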

The structures appear in SMILES notation.

For orientation: EC50 means the concentration needed to bring the measured effect to its halfway point. A lower EC50 goes with an effect from little substance. One may read the inhibition as the share of the control response that was lost under treatment. On to `Fc1ccccc1-c1nccc2[nH]c(-c3n[nH]c4ccc(-c5cncc(CNCC6CCCC6)c5)nc34)nc12` [Compound 81, 1-Cyclopentyl-N-((5-(3-(4-(2-fluorophenyl)-1H-imidazo[4,5-c]pyridin-2-yl)-1H-pyrazolo[4,3-b]pyridin-5-yl)pyridin-3-yl)methyl)methanamine], for which the EC50 in experiment [1] is > 10 µM; in experiment [2], 1.28 µM; in experiment [3], 1.08 µM. Moreover, in experiment [1], the inhibition at 10 µM came to 54.6%.

For `COc1cccc(-c2nccc3[nH]c(-c4n[nH]c5ccc(-c6cncc(OC7CCNCC7)c6)nc45)nc23)c1` [Compound 1025, 3-(4-(3-Methoxyphenyl)-1H-imidazo[4,5-c]pyridin-2-yl)-5-(5-(piperidin-4-yloxy)pyridin-3-yl)-1H-pyrazolo[4,3-b]pyridine], the results for the EC50 in experiment [1], in experiment [2] and in experiment [3] were > 10 µM, 3.33 µM and > 10 µM, respectively. The inhibition at 10 µM in experiment [1] amounted to 26.9%; in experiment [3] it was 12.7%.

As for `CC(C)(C)CC(=O)Nc1cncc(-c2ccc3[nH]nc(-c4nc5cnccc5[nH]4)c3n2)c1` [Compound 268, N-(5-(3-(1H-Imidazo[4,5-c]pyridin-2-yl)-1H-pyrazolo[4,3-b]pyridin-5-yl)pyridin-3-yl)-3,3-dimethylbutanamide], the EC50 in experiment [1], in experiment [2] and in experiment [3] was > 10 µM throughout. Besides, the inhibition at 10 µM in experiment [1] was 19%; in experiment [2] it was 0%; in experiment [3], 0%.

In the case of `Cc1cn(-c2nccc3[nH]c(-c4n[nH]c5ccc(-c6cncc(NC(=O)C(C)(C)C)c6)nc45)nc23)cn1` [Compound 204, N-(5-(3-(4-(4-Methyl-1H-imidazol-1-yl)-1H-imidazo[4,5-c]pyridin-2-yl)-1H-pyrazolo[4,3-b]pyridin-5-yl)pyridin-3-yl)pivalamide], the half-maximal effective concentration (EC50) in experiment [1], in experiment [2] and in experiment [3] was > 10 µM throughout. The inhibition at 10 µM turned out to be 41.8% in experiment [1], 8.1% in experiment [2] and 0% in experiment [3].

Take `CN(C)CC(=O)Nc1cncc(-c2ccc3[nH]nc(-c4nc5c(-c6cccc(F)c6)nccc5[nH]4)c3n2)c1` [Compound 969, 2-(Dimethylamino)-N-(5-(3-(4-(3-fluorophenyl)-1H-imidazo[4,5-c]pyridin-2-yl)-1H-pyrazolo[4,3-b]pyridin-5-yl)pyridin-3-yl)acetamide]: the EC50 in experiment [1] was > 10 µM; in experiment [2], 1.63 µM; in experiment [3] it was 1.63 µM. Also, in experiment [1], the inhibition at 10 µM is 31.8%.

In the case of `CC(C)Nc1cncc(-c2ccc3[nH]nc(-c4nc5c(-c6cccnc6)nccc5[nH]4)c3n2)c1` [Compound 96, N-Isopropyl-5-(3-(4-(pyridin-3-yl)-1H-imidazo[4,5-c]pyridin-2-yl)-1H-pyrazolo[4,3-b]pyridin-5-yl)pyridin-3-amine], the values for the EC50 in experiment [1], in experiment [2] and in experiment [3] were 2.75 µM, 1.25 µM and 1.98 µM, respectively.

Take `CCC(=O)Nc1cncc(-c2ccc3[nH]nc(-c4nc5c(N6CCCCC6)nccc5[nH]4)c3n2)c1` [Compound 169, N-(5-(3-(4-(Piperidin-1-yl)-1H-imidazo[4,5-c]pyridin-2-yl)-1H-pyrazolo [4,3-b]pyridin-5-yl)pyridin-3-yl)propionamide]: the figures for the EC50 in experiment [1], in experiment [2] and in experiment [3] were > 10 µM, 7.89 µM and 3.8 µM, respectively. In experiment [1], the inhibition at 10 µM was found to be 42.6%.

In the case of `FC1(F)CCN(Cc2cncc(-c3ccc4[nH]nc(-c5nc6c(-c7ccsc7)nccc6[nH]5)c4n3)c2)C1` [Compound 306, 5-(5-((3,3-difluoropyrrolidin-1-yl)methyl)pyridin-3-yl)-3-(4-(thiophen-3-yl)-1H-imidazo[4,5-c]pyridin-2-yl)-1H-pyrazolo[4,3-b]pyridine], the figures for the EC50 in experiment [1], in experiment [2] and in experiment [3] were 3.66 µM, 1.24 µM and 1.12 µM, respectively.

As for `Cc1cn(-c2nccc3[nH]c(-c4n[nH]c5ccc(-c6cncc(NC(=O)CC(C)C)c6)nc45)nc23)cn1` [Compound 198], the EC50 in experiment [1] was > 10 µM; in experiment [2] it was > 10 µM; in experiment [3], 8.48 µM. In addition, the inhibition at 10 µM in experiment [1] came to 25.2%; in experiment [2] it was 4.5%.

With `CC(C)(C)C(=O)Nc1cncc(-c2ccc3[nH]nc(-c4nc5c(-c6ccc(Cl)s6)nccc5[nH]4)c3n2)c1` [Compound 1043, N-(5-(3-(4-(5-Chlorothiophen-2-yl)-1H-imidazo[4,5-c]pyridin-2-yl)-1H-pyrazolo[4,3-b]pyridin-5-yl)pyridin-3-yl)pivalamide], the EC50 is > 10 µM in experiment [1], > 10 µM in experiment [2] and 3.34 µM in experiment [3]. Also, the inhibition at 10 µM in experiment [1] stood at 0%; in experiment [2], 22%.

Consider `COc1cccc(-c2nccc3[nH]c(-c4n[nH]c5ccc(-c6cncc(O)c6)nc45)nc23)c1` [Compound 1030, 5-(3-(4-(3-Methoxyphenyl)-1H-imidazo[4,5-c]pyridin-2-yl)-1H-pyrazolo [4,3-b]pyridin-5-yl)pyridin-3-ol], for which the EC50 was 0.493 µM in experiment [1], 9.7 µM in experiment [2] and > 10 µM in experiment [3]. Besides, in experiment [3], the inhibition at 10 µM is 6%.

Turning to `O=C(Nc1cncc(-c2ccc3[nH]nc(-c4nc5c(N6CCCCC6)nccc5[nH]4)c3n2)c1)C1CC1` [Compound 188, N-(5-(3-(4-(Piperidin-1-yl)-1H-imidazo[4,5-c]pyridin-2-yl)-1H-pyrazolo [4,3-b]pyridin-5-yl)pyridin-3-yl)cyclopropanecarboxamide], the 50% effective concentration (EC50) in experiment [1], in experiment [2] and in experiment [3] was > 10 µM throughout. For the same compound, the inhibition at 10 µM in experiment [1] came to 15.9%; in experiment [2], 0%; in experiment [3], 10.5%.

`c1cc2[nH]c(-c3n[nH]c4ccc(-c5cncc(CNCC6CCCC6)c5)nc34)nc2c(-c2ccoc2)n1` [Compound 333, 1-Cyclopentyl-N-((5-(3-(4-(furan-3-yl)-1H-imidazo[4,5-c]pyridin-2-yl)-1H-pyrazolo [4,3-b]pyridin-5-yl)pyridin-3-yl)methyl)methanamine]: the concentration for a half-maximal effect (EC50) in experiment [1] was > 10 µM; in experiment [2] it was > 10 µM; in experiment [3], 3.42 µM. Besides, the inhibition at 10 µM in experiment [1] was 32.3%; in experiment [2], 46.9%.

Consider `CN1CCN(c2nccc3[nH]c(-c4n[nH]c5ccc(-c6cncc(NC(=O)C7CCCC7)c6)nc45)nc23)CC1` [Compound 246, N-(5-(3-(4-(4-Methylpiperazin-1-yl)-1H-imidazo[4,5-c]pyridin-2-yl)-1H-pyrazolo [4,3-b]pyridin-5-yl)pyridin-3-yl)cyclopentanecarboxamide], for which the results for the EC50 in experiment [1], in experiment [2] and in experiment [3] were > 10 µM, 5.26 µM and > 10 µM, respectively. The figures for the inhibition at 10 µM in experiment [1] and in experiment [3] were 37.7% and 0%, respectively.

Consider `c1cc2[nH]c(-c3n[nH]c4ccc(-c5cncc(OC6CCNCC6)c5)nc34)nc2cn1` [Compound 656, 3-(1H-Imidazo[4,5-c]pyridin-2-yl)-5-(5-(piperidin-4-yloxy)pyridin-3-yl)-1H-pyrazolo[4,3-b]pyridine], for which the EC50 in experiment [1] is > 10 µM; in experiment [2], 3.33 µM; in experiment [3], > 10 µM. The inhibition at 10 µM in experiment [1] was 41.3%; in experiment [3] it was 10.9%.

Take `c1cncc(-c2ccc3[nH]nc(-c4nc5c(-c6cccnc6)nccc5[nH]4)c3n2)c1` [Compound 88, 5-(Pyridin-3-yl)-3-(4-(pyridin-3-yl)-1H-imidazo[4,5-c]pyridin-2-yl)-1H-pyrazolo[4,3-b]pyridine]: the EC50 in experiment [1], in experiment [2] and in experiment [3] was > 10 µM throughout. The inhibition at 10 µM in experiment [1] came out at 20.4%; in experiment [2] it was 22.2%; in experiment [3] it was 8.5%.

Take `O=C(Nc1cncc(-c2ccc3[nH]nc(-c4nc5c(-c6ccccc6F)nccc5[nH]4)c3n2)c1)C1CCCC1` [Compound 78, N-(5-(3-(4-(2-Fluorophenyl)-1H-imidazo[4,5-c]pyridin-2-yl)-1H-pyrazolo [4,3-b]pyridin-5-yl)pyridin-3-yl)cyclopentanecarboxamide]: the EC50 in experiment [1], in experiment [2] and in experiment [3] was > 10 µM in each case. Also, the inhibition at 10 µM in experiment [1] turned out to be 29.7%; in experiment [2], 0%; in experiment [3], 19.8%.
